Laboratory results: US11534457B2, “Use of dextran sulfate” (priority 2017, dated 2022)

System: closed-head diffuse severe TBI (sTBI)
Test: sTBI in rats, dose study, HPLC of energy metabolites, antioxidants, oxidative/nitrosative stress biomarkers, NAA (Example 7)
Format: in vivo, Male Wistar rats
Procedure: Male Wistar rats (n=160) of 300-350 g body weight were used in this study. They were fed with standard laboratory diet and water ad libitum in a controlled environment.
As the accepted anesthetic mixture, animals received 35 mg/kg b.w. ketamine and 0.25 mg/kg body weight midazolam by intramuscular injection. Diffuse sTBI was induced according to the “weight drop” impact acceleration model set up by Marmarou et al. J. Neurosurg. 1994, 80: 291-300. This model causes diffuse axonal injury and it is able to reproduce the physical and mechanical characteristics of the diffuse TBI in humans.
Severe TBI was induced by dropping a 450 g weight from 2 meters height onto the rat head protected by a helmet (metal disk previously fixed on the skull using dental cement) in order to uniformly distribute the mechanical force to the brain. Rats were placed prone on a bed of specific polyurethane foam inserted in a special container; this foam dissipates the major part of the potential energy (deriving from the mechanical forces) and prevents any rebound of the animal after the impact that could produce spinal damages.
After 2 or 7 days from TBI induction, rats were anesthetized again and then immediately sacrificed. These time points are coincident with the worst biochemical derangement (2 days) or, in the case of a mildly injured brain, with a full metabolic recovery (7 days).
The drug treatment consisted in a subcutaneous injection of 0.5 ml of LMW-DS (Tikomed) and administered at 3 different concentrations (1, 5 and 15 mg/kg body weight), according to the schematic protocol described below.
(§1) Rats subjected to sTBI and receiving a single administration of LMW-DS after 30 minutes post-TBI, with sacrifice at 2 days post-TBI. Animals were divided in the following subgroups: • 1. 12 animals subjected to sTBI and treated with 1 mg/kg b.w. LMW-DS • 2. 12 animals subjected to sTBI and treated with 5 mg/kg b.w. LMW-DS • 3. 12 animals subjected to sTBI and treated with 15 mg/kg b.w. LMW-DS
as §1, with “at 7” for “at 2”
Rats (n=12) subjected to sTBI and receiving repeated administrations of the maximal dose of LMW-DS (15 mg/kg b.w.) after 30 minutes, 3 days and 5 days post-TBI, with sacrifice at 7 days post-TBI. Four additional rats were used for the histo-morphological studies. Total rats in this group: n=16
To minimize metabolite loss, an in vivo craniectomy was performed in all animals during anesthesia. The rat skull was carefully removed, the brain was exposed, sharply cut along the sagittal fissure and the two hemispheres were separated. The hemispheres dedicated to biochemical analyses were freeze-clamped by aluminum tongues pre-cooled in liquid nitrogen and then immersed in liquid nitrogen. The freeze-clamping procedure was introduced to accelerate freezing of the tissue, thus minimizing potential metabolite loss.
Tissue homogenization for metabolite analyses was effected as described below. After the wet weight (w.w.) determination, the frozen hemispheres were placed into 7 ml of ice-cold, nitrogen-saturated, precipitating solution (1:10 w/v) composed by CH3CN+10 mM KH2PO4, pH 7.40, (3:1; v:v), and the homogenization was performed using an Ultra-Turrax homogenizer set at 24,000 rpm/min (Janke & Kunkel, Staufen, Germany). After centrifugation at 20,690×g, for 10 min at 4° C., the clear supernatants were saved, pellets were supplemented with an aliquot of 10 mM KH2PO4 and homogenized again as described above and saved overnight at −20° C. in order to obtain a complete recovery of aqueous phase from tissue. […]

[1] = 1 mg/kg s.c. single, 30 min post-sTBI, sacrifice 2 days
[2] = 15 mg/kg s.c. single, 30 min post-sTBI, sacrifice 2 days
[3] = 2 days post sTBI, 5 or 15 mg/kg b.w.
[4] = rats, 7 days post-sTBI, single administration of 15 mg/kg b.w.

low molecular weight dextran sulfate [LMW-DS]
CDP choline, brain concentration [1]: 8.23 ± 1.22 nmol/g w.w.
GDP Glucose, brain concentration [1]: 65.66 ± 41.61 nmol/g w.w.
UDP-Glc, brain concentration [1]: 45.14 ± 6.68 nmol/g w.w.
UDP-GlcNac, brain concentration [1]: 96.62 ± 8.80 nmol/g w.w.
NAD^+/NADH ratio, brain (1 mg/kg s.c. single, 30 min post-sTBI, sacrifice 2 days, adimensional): 33.91 ± 9.32
NAD^+/ADH, brain (1 mg/kg s.c. single, 30 min post-sTBI, sacrifice 7 days): 33.91 ± 9.32
GDP Glucose, brain concentration (5 mg/kg s.c. single, 30 min post-sTBI, sacrifice 2 days): 83.81 ± 37.35 nmol/g w.w.
CYTIDINE, brain concentration [2]: 11.46 ± 2.07 nmol/g w.w.
GDP Glucose, brain concentration [2]: 84.24 ± 37.54 nmol/g w.w.
UDP-Glc, brain concentration [2]: 43.41 ± 06.43 nmol/g w.w.
β-PSEUDOURIDINE, brain concentration [2]: 7.84 ± 1.57 nmol/g w.w.
ascorbic acid and reduced glutathione (GSH) (2 days post sTBI): significantly ameliorated
cerebral tissue nitrites and nitrates (2 days post sTBI): evident decrease
concentrations of UTP and ADP (2 days post sTBI): No effects
de-phosphorylated purines and pyrimidines (2 days post sTBI): positively affected
nicotinic coenzyme pool and NAD/NADH ratio (2 days post sTBI, 15 mg/kg b.w.): effective only at the maximal dose tested
Acetyl-CoA [3]: partial rescue
whole brain NAA [3]: significantly higher than values found in sTBI rats
high energy phosphates (ATP, GTP, and CTP) vs sTBI (2 days post sTBI, all three dosages (1, 5, 15 mg/kg)): Significantly higher values
ATP level, lower than the value of controls (7 days post impact (untreated sTBI 35%)): 16%
NAA concentration, lower than the value of controls (7 days post impact (untreated sTBI 48%)): 16%
de-phosphorylated purines and pyrimidines (7 days post sTBI): positively affected
CoA-SH and Acetyl-CoA (7 days post sTBI, 5 or 15 mg/kg b.w. (single and repeat)): Remarkable positive effects
ATP (7 days post sTBI, any dose tested): significant increases
concentrations of nicotinic coenzymes (7 days post sTBI, excluding the lowest dose): significant improvement
ascorbic acid and GSH, with decrease of nitrites and nitrates (7 days post sTBI, highest single and repeat dose): particularly beneficial
ATP/ADP ratio (7 days post sTBI, increasing dose): progressively increased
whole brain NAA (7 days post sTBI, increasing single doses or repeat maximal dose): dose dependent increase
cerebral energy metabolism (7 days post sTBI, more evident above 1 mg/kg b.w.): general improvement
NAD+ level and NAD/NADH ratio (7 days post sTBI, single and repeat 15 mg/kg b.w.): able to normalize NAD+ level and to restore the correct NAD/NADH ratio
ADENOSINE concentration in deproteinized brain homogenates (rats, 7 days post-sTBI, repeated administration of 15 mg/kg b.w.): 40.84 ± 30.25 nmol/g w.w.
GMP concentration in deproteinized brain homogenates (rats, 7 days post-sTBI, single administration of 1 mg/kg b.w.): 113.06 ± 53.51 nmol/g w.w.
ADENOSINE concentration in deproteinized brain homogenates [4]: 55.95 ± 41.44 nmol/g w.w.
CDP choline concentration in deproteinized brain homogenates [4]: 10.06 ± 3.23 nmol/g w.w.
